Values of other authors in patent US20180228837A1, “STABLE IODINE SOLUTIONS WITH MEDICAL APPLICATIONS” (priority 2017, published 2018).
Like-named read-outs stand apart in the source and are kept apart here.

What was measured:
[1] = test system: wound chambers and full thickness wounds; conditions: rats; injected in one area of the body, healing at distant areas
[2] = test system: ischemic open wounds; conditions: ischemic open wounds in rats; compared with vehicle alone or untreated wounds
[3] = test system: dermal wounds; conditions: dermal wounds of rabbits
[4] = test system: wound chambers and full thickness wounds; conditions: mice; injected in one area of the body, healing at distant areas
[5] = test system: wounds; conditions: diabetic rats; collagen membrane material
[6] = test system: wound chambers and full thickness wounds; conditions: pigs; injected in one area of the body, healing at distant areas

**Q.** Which “systemic enhancement of healing” value [1] does the source give for “copper complex of a glycyl-L-histidyl-L-lysine peptide [GHK-Cu]” here?
**A.** induce a systemic enhancement of healing

**Q.** And the “concentration of metalloproteinases 2 and 9 and of TNF-beta” value [2]?
**A.** decreased

**Q.** What about the wound healing [2] of the same substance?
**A.** healed faster

**Q.** What about the wound healing [3] of the same substance?
**A.** facilitated wound healing

**Q.** What about the “systemic enhancement of healing” value [4] of the same substance?
**A.** induce a systemic enhancement of healing

**Q.** What about the “wound contraction and epithelization” value [5] of the same substance?
**A.** faster wound contraction and epithelization

**Q.** And the “systemic enhancement of healing” value [6]?
**A.** induce a systemic enhancement of healing
